Source: publication PMC8508980, “Design, Synthesis and Anticancer Profile of New 4-(1H-benzo[d]imidazol-1-yl)pyrimidin-2-amine-Linked Sulfonamide Derivatives with V600EBRAF Inhibitory Effect” (International Journal of Molecular Sciences, 2021)

What was measured:
Assay in all cases: NCI 60 cell line screen
Type in all cases: cell-based
[1] = test system: SK-OV-3; conditions: Homo sapiens; SK-OV-3, Ovarian Cancer; read-out: Percent growth
How it was run: (§1)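 Cells seeded, incubated 24 h, then a time-zero plate fixed with TCA. Drug added at five concentrations up to 10 µM for 48 h at 37 °C. Cells fixed with TCA (16% for suspension lines), stained with SRB, absorbance read at 515 nm.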

[2] = test system: OVCAR-5; conditions: Homo sapiens; OVCAR-5, Ovarian Cancer; read-out: Percent growth
How it was run: as §1

[3] = test system: COLO 205; conditions: Homo sapiens; COLO 205, Colon Cancer; read-out: Percent growth
How it was run: as §1

[4] = test system: SK-MEL-2; conditions: Homo sapiens; SK-MEL-2, Melanoma; read-out: Percent growth
How it was run: as §1

[5] = test system: HCC-2998; conditions: Homo sapiens; HCC-2998, Colon Cancer; read-out: Percent growth
How it was run: as §1

[6] = test system: MCF7; conditions: Homo sapiens; MCF7, Breast Cancer; read-out: Percent growth
How it was run: as §1

[7] = test system: NCI-H322M; conditions: Homo sapiens, Non-Small Cell Lung Cancer, read-out: Percent growth
How it was run: as §1

[8] = test system: SF-539; conditions: Homo sapiens; SF-539, CNS-Cancer; read-out: Percent growth
How it was run: as §1

[9] = test system: LOX IMVI; conditions: Homo sapiens, Melanoma, read-out: Percent growth
How it was run: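 Cells grown in RPMI 1640 with 5% FBS were plated 24 h before dosing, then exposed for 48 h at 37 °C to five drug concentrations (maximum 10 µM). Adherent cells were TCA-fixed, suspension cells fixed with 80% TCA. SRB absorbance at 515 nm, relative to time-zero and control plates, gave percent growth and TGI.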

[10] = test system: SF-268; conditions: Homo sapiens; SF-268, CNS-Cancer; read-out: Percent growth
How it was run: as §1

[11] = test system: ACHN; conditions: Homo sapiens, Renal Cancer, read-out: Percent growth
How it was run: as §1

[12] = test system: OVCAR-3; conditions: Homo sapiens; OVCAR-3, Ovarian Cancer; read-out: Percent growth
How it was run: as §1

[13] = test system: MALME-3M; conditions: Homo sapiens, Melanoma, read-out: Percent growth
How it was run: as §1

[14] = test system: HCT-116; conditions: Homo sapiens; HCT-116, Colon Cancer; read-out: Percent growth
How it was run: as §1

[15] = test system: SN12C; conditions: Homo sapiens, Renal Cancer, read-out: Percent growth
How it was run: as §1

[16] = test system: A498; conditions: Homo sapiens; A498, Renal Cancer; read-out: Percent growth
How it was run: as §1

[17] = test system: A549/ATCC; conditions: Homo sapiens, Non-Small Cell Lung Cancer, read-out: Percent growth
How it was run: as §1

[18] = test system: DU-145; conditions: Homo sapiens; DU-145, Prostate Cancer; read-out: Percent growth
How it was run: as §1

[19] = test system: BT-549; conditions: Homo sapiens; BT-549, Breast Cancer; read-out: Percent growth
How it was run: as §1

[20] = test system: MDA-MB-231/ATCC; conditions: Homo sapiens, Breast Cancer, read-out: Percent growth
How it was run: as §1

[21] = test system: MDA-MB-435; conditions: Homo sapiens; MDA-MB-435, Melanoma; read-out: Percent growth
How it was run: as §1

[22] = test system: SW-620; conditions: Homo sapiens; SW-620, Colon Cancer; read-out: Percent growth
How it was run: as §1

Row | Compound | activity at 10 µM [1] [%] | activity at 10 µM [2] [%] | activity at 10 µM [3] [%] | activity at 10 µM [4] [%] | activity at 10 µM [5] [%] | activity at 10 µM [6] [%] | activity at 10 µM [7] [%] | activity at 10 µM [8] [%] | activity at 10 µM [9] [%] | activity at 10 µM [10] [%] | activity at 10 µM [11] [%] | activity at 10 µM [12] [%] | activity at 10 µM [13] [%] | activity at 10 µM [14] [%] | activity at 10 µM [15] [%] | activity at 10 µM [16] [%] | activity at 10 µM [17] [%] | activity at 10 µM [18] [%] | activity at 10 µM [19] [%] | activity at 10 µM [20] [%] | also measured
1 | O=S(=O)(NCCCNc1nccc(-n2cnc3ccccc32)n1)c1ccc(Br)cc1 [12k, N-(3-((4-(1H-benzo [d]imidazol-1-yl)pyrimidin-2-yl)amino)propyl)-4-bromo benzenesulfonamide] | 109 | 97 | 108 | 105 | 112 | 86.7 | 103 | 85.2 | 94.6 | 91.2 | 90.4 | 104 | 104 | 90.3 | 89.2 | 77.2 | 95 | 96.5 | 80.8 | 83.6 | activity at 10 µM [21]: 92.6%; activity at 10 µM [22]: 106%
2 | COc1ccc(S(=O)(=O)NCCCNc2nccc(-n3cnc4ccccc43)n2)cc1 [12m, N-(3-((4-(1H-benzo [d]imidazol-1-yl)pyrimidin-2-yl)amino)propyl)-4-methoxy benzenesulfonamide] | 96.2 | 99.6 | 108 | 103 | 111 | 85.1 | 104 | 83.9 | 93.4 | 91.6 | 88.2 | 105 | 107 | 89.9 | 92.4 | 81.9 | 106 | 100 | 92.9 | 84.1 | activity at 10 µM [21]: 98.7%; activity at 10 µM [22]: 104%
3 | O=S(=O)(NCCCNc1nccc(-n2cnc3ccccc32)n1)c1cccc2ccccc12 [12n, N-(3-((4-(1H-benzo [d]imidazol-1-yl)pyrimidin-2-yl)amino)propyl)naphthalene-1-sulfonamide] | 92.5 | 96.3 | 96.4 | 97.8 | 112 | 83.4 | 103 | 87.9 | 85.6 | 86.8 | 87.1 | 96.8 | 98.4 | 75.9 | 85.9 | 72.1 | 86.3 | 94.5 | 88.2 | 83.1 | activity at 10 µM [21]: 93.4%; activity at 10 µM [22]: 106%
